Patent publication US6852501B2, “Methods for determining ATPase activity and uses thereof” (Boehringer Ingelheim (Canada) Ltd., priority 1999, dated 2005)
Read-outs that look alike come from different tables or passages of the source.

How the values were obtained:
HPV-11 E1 = molecular target: T1, HPV-11 E1 (Human papillomavirus 11, UniProt P04014); test: E1 ATPase SPA kinetic analysis (Km/Ki); type: biochemical, human papilloma virus
T1 construct: polyhistidine; made in house; host or cells: baculovirus-infected insect cells
T1 sequence (P04014 whole entry): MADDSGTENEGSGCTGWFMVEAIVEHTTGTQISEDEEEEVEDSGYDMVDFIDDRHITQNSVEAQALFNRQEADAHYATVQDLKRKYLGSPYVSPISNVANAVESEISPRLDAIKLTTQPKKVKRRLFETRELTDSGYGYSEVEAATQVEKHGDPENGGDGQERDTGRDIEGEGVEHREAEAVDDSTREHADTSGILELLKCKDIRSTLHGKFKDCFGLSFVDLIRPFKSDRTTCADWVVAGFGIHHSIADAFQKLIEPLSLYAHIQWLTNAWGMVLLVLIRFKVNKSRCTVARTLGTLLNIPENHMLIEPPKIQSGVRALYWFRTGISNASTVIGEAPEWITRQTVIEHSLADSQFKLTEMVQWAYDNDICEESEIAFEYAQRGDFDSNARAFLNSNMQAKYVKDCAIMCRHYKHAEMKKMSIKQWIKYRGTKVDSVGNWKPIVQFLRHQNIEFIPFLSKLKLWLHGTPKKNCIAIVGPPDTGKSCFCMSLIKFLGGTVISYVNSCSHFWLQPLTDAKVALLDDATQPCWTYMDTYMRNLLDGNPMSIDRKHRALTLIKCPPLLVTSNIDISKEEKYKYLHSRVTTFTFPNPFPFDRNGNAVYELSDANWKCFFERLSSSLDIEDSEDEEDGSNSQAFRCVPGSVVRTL
Description: Polyhistidine-tagged HPV-11 E1 was expressed in baculovirus-infected insect cells and purified by Ni-affinity chromatography as described in WO 99/57283 (incorporated herein by reference).
ATPase time-courses were run at different concentrations of ATP in order to determine the kinetic parameter Km(ATP) for HPV-11 E1. Reactions were run under similar conditions in both experiments, using the procedures given in Examples 1 and 2, except that the concentration of Igepal-CA630 was 0.01% rather than 0.005% and with experiment-specific changes noted below. The E1 concentration was 2 nM and the ATP concentrations ranged from 3-75 μM (TLC) or 2-50 μM (SPA), with the MgOAc concentration equal to the ATP concentration plus 0.5 mM. Stock solutions of ATP at each concentration were obtained by diluting the highest concentration solution with buffer containing 0.5 mM MgOAc; thus a constant ratio of radiolabeled to unlabeled ATP was used for all reactions. Reaction rates were measured by taking time-points from 10 or 20 to 120 minutes. To insure initial velocity conditions, time-points giving greater than 20% conversion were not used for analysis.
Total reaction volumes were 150 μL. For each time-point, 20 μL of reaction mixture was removed and combined with 40 μL of ammonium molybdate/SPA bead mixture followed by 80 μL of CsCl/citric acid. All reactions were run in triplicate. Plates were counted after overnight incubation. At the last time-point, an additional 20 μL aliquot was removed and combined with 10 μL 0.5 M EDTA. In this case, the conversion of ATP to phosphate was quantified by TLC, and the concentration of phosphate determined by TLC was compared to the cpm from the SPA procedure, after subtraction of blanks in both cases. The relationship between phosphate concentration and cpm is linear and the slope of the line was used to convert cpm values from SPA detection to concentration of phosphate produced. Rates of phosphate production at each ATP concentration were fit by nonlinear regression to the Michaelis-Menten equation using the program Grafit (V 3.01, R. Leatherbarrow).
The γ-thio phosphate analog of ATP inhibits many ATPases by a competitive mechanism. Experimental determination of the mechanism of inhibitor action requires measuring initial velocities for a number of substrate and inhibitor concentrations. The number of data points needed (several hundred) and the precision required for this experiment mean that performing the experiment by TLC detection is much more difficult and tedious. The SPA procedure works well, however. For this experiment, ATP concentrations of 5, 10, 20 and 40 μM were used, along with inhibitor concentrations of 0, 3, 6, 12 and 24 μM. Reactions were run as described for Example 9 (SPA detection). Data were processed as above and fit by nonlinear regression to an equation for competitive inhibition using GraFit. […] The plot was generated in Excel using the fitted parameters for the lines and the experimental values for points. For comparison, the data were also fit to an equation for non-competitive inhibition (equal binding of inhibitor to enzyme and enzyme-substrate complexes). […] Because of the quality of the data obtained it is possible to observe a systematic deviation between the experimental and fitted values for this second mechanism, especially at higher inhibitor concentrations.

[1] = molecular target: HPV-6a ATPase activity (HPV-6 E1) (Human papillomavirus type 6a, UniProt Q84293); test: E1 ATPase scintillation proximity assay, IC50 curves; type: biochemical, human papilloma virus; details: nonlinear regression; 1 μM ATP, 6 nM HPV-6 E1, 75 minutes, SPA detection; read-out: IC50 for inhibition of HPV-6a ATPase activity
HPV-6a ATPase activity (HPV-6 E1), sequence (Q84293 whole entry): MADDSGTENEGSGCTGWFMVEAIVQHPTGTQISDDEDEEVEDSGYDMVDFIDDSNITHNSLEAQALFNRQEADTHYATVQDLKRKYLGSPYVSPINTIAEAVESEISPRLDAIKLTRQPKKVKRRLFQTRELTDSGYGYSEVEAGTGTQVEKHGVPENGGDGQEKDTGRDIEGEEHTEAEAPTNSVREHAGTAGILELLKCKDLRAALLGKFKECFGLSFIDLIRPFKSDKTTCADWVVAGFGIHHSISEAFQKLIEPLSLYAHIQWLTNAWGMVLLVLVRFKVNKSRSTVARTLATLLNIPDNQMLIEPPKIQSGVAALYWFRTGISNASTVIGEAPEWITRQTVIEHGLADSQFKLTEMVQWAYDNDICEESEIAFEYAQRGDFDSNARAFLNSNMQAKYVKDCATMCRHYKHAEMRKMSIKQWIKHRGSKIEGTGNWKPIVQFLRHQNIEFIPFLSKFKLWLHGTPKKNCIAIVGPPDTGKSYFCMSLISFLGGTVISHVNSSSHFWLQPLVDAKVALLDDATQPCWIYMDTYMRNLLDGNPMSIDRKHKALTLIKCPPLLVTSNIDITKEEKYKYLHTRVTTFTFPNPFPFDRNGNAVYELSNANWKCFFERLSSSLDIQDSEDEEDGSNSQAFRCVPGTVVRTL
Protocol: Radiolabeled [γ-^33P]ATP (NEN) was prepared upon receipt by diluting it 100-fold in the reaction buffer and storing it at −80° C. Material stored in this way was good for greater than one month. E1 ATPase reactions were run in a buffer consisting of 20 mM HEPES, pH 7.5, 0.05 mM EDTA and 1 mM DTT, and 0.05% Igepal CA-630 (equivalent to Nonidet P40). Volumes and concentrations given below are typical, but these can be varied somewhat with minimal effect on results, as shown in later examples. One μM ATP (Amersham Pharmacia) and 500 μM MgOAc were mixed with [γ-^33P]ATP at 100-fold dilution from the stored material (10,000 dilution from the stock), or approximately 1 nCi/μL when fresh. The actual ATP concentration contributed by [γ-^33P]ATP was approximately 1 nM; this amount could be reduced further if necessary. […]
At the desired time, 40 μL reactions were stopped by adding 20 PL of a SPA bead-AmMo mixture. […] The extent of phosphate production was then determined by scintillation counting using the TopCount (Packard). If desired, cpm can be converted to phosphate concentration by comparison of SPA results to those determined by TLC (see below) for identical reactions. […]
All solutions are made in the assay buffer described in Example 3 except that the assay buffer also contained 0.005% Igepal CA-630. […] After mixing briefly, plates were left for 90 minutes and then counted on a TopCount. […]

Molecule	Km (HPV-11 E1; background statement, measured in the absence of DNA, read-out: Km (ATP) of the HPV-11 E1 ATPase) [µM]	Km (HPV-11 E1; fit to competitive inhibition, read-out: Km(ATP)) [µM]	Km (HPV-11 E1; fit to non-competitive inhibition, read-out: Km(ATP)) [µM]	IC50 [1] [µM]	mechanism of inhibition (HPV-11 E1; comparison of competitive and noncompetitive fits)	Ki(ATP-γ-S) (HPV-11 E1; fit to non-competitive inhibition (equal binding to enzyme and enzyme-substrate complexes)) [µM]
Nc1ncnc2c1ncn2[C@@H]1O[C@H](COP(=O)(O)OP(=O)(O)OP(=O)(O)O)[C@@H](O)[C@H]1O [ATP]	~10	6.7 ± 0.7	12 ± 2	–	–	–
adenosine-5′-O-(3-thiotriphosphate) [ATP-γ-S]	–	–	–	8 ± 1.6	the competitive model is more appropriate	16 ± 2
